Measured values taken from the NIST ThermoML archive (doi:10.1016/j.jct.2007.01.008).
Values joined by “and” are separate entries in the source; they are usually repeats but may differ in a detail not shown here. Equal entries are not always repeated. Numbers after ± are expanded uncertainties.

Conditions: for surface tension liquid-gas: Ring tensiometer; for viscosity / mass density: 101.33 kPa, Liquid; for viscosity: Capillary tube (Ostwald / Ubbelohde) method; for mass density: Vibrating tube method

SMILES: CCC(=O)CC [pentan-3-one]
- surface tension liquid-gas (283.15 K): 26.5 ± 0.4 mN/m
- viscosity (283.15 K): 0.515 ± 0.004 mPa·s
- mass density (283.15 K): 824.27 ± 0.11 kg/m3
- surface tension liquid-gas (285.15 K): 26.3 ± 0.4 mN/m
- viscosity (285.15 K): 0.507 ± 0.004 mPa·s
- mass density (285.15 K): 822.28 ± 0.11 kg/m3
- surface tension liquid-gas (287.15 K): 26.1 ± 0.4 mN/m
- viscosity (287.15 K): 0.499 ± 0.004 mPa·s
- mass density (287.15 K): 820.3 ± 0.11 kg/m3
- surface tension liquid-gas (289.15 K): 26 ± 0.4 mN/m
- viscosity (289.15 K): 0.492 ± 0.004 mPa·s
- mass density (289.15 K): 818.31 ± 0.11 kg/m3
- surface tension liquid-gas (291.15 K): 25.8 ± 0.4 mN/m
- viscosity (291.15 K): 0.484 ± 0.003 mPa·s
- mass density (291.15 K): 816.33 ± 0.11 kg/m3
- viscosity (292.15 K): 0.48 ± 0.003 mPa·s
- surface tension liquid-gas (293.15 K): 25.6 ± 0.4 mN/m
- viscosity (293.15 K): 0.476 ± 0.003 mPa·s
- mass density (293.15 K): 814.34 ± 0.11 kg/m3
- surface tension liquid-gas (295.15 K): 25.4 ± 0.4 mN/m
- viscosity (295.15 K): 0.468 ± 0.003 mPa·s
- mass density (295.15 K): 812.36 ± 0.11 kg/m3
- surface tension liquid-gas (297.15 K): 25.2 ± 0.4 mN/m
- viscosity (297.15 K): 0.46 ± 0.003 mPa·s
- mass density (297.15 K): 810.37 ± 0.11 kg/m3
- viscosity (298.15 K): 0.458 ± 0.003 mPa·s
- mass density (298.15 K): 809.25 ± 0.11 kg/m3 and 810.86 ± 0.11 kg/m3
- surface tension liquid-gas (299.15 K): 25 ± 0.4 mN/m
- viscosity (299.15 K): 0.453 ± 0.003 mPa·s
- mass density (299.15 K): 808.39 ± 0.11 kg/m3
- surface tension liquid-gas (301.15 K): 24.8 ± 0.4 mN/m
- viscosity (301.15 K): 0.445 ± 0.003 mPa·s
- mass density (301.15 K): 806.4 ± 0.11 kg/m3
- surface tension liquid-gas (303.15 K): 24.6 ± 0.4 mN/m
- viscosity (303.15 K): 0.437 ± 0.003 mPa·s
- mass density (303.15 K): 804.42 ± 0.11 kg/m3
- surface tension liquid-gas (305.15 K): 24.4 ± 0.4 mN/m
- viscosity (305.15 K): 0.429 ± 0.003 mPa·s
- mass density (305.15 K): 802.43 ± 0.12 kg/m3
- surface tension liquid-gas (307.15 K): 24.2 ± 0.4 mN/m
- viscosity (307.15 K): 0.421 ± 0.003 mPa·s
- mass density (307.15 K): 800.45 ± 0.12 kg/m3
- surface tension liquid-gas (309.15 K): 24 ± 0.4 mN/m
- viscosity (309.15 K): 0.414 ± 0.003 mPa·s
- mass density (309.15 K): 798.46 ± 0.12 kg/m3
- surface tension liquid-gas (311.15 K): 23.8 ± 0.4 mN/m
- viscosity (311.15 K): 0.406 ± 0.003 mPa·s
- mass density (311.15 K): 796.48 ± 0.12 kg/m3
- surface tension liquid-gas (313.15 K): 23.6 ± 0.4 mN/m
- viscosity (313.15 K): 0.398 ± 0.003 mPa·s
- mass density (313.15 K): 794.49 ± 0.12 kg/m3
- surface tension liquid-gas (315.15 K): 23.4 ± 0.4 mN/m
- viscosity (315.15 K): 0.39 ± 0.003 mPa·s
- mass density (315.15 K): 792.51 ± 0.12 kg/m3
- surface tension liquid-gas (317.15 K): 23.3 ± 0.4 mN/m
- viscosity (317.15 K): 0.382 ± 0.003 mPa·s
- mass density (317.15 K): 790.52 ± 0.12 kg/m3
- surface tension liquid-gas (319.15 K): 23.1 ± 0.4 mN/m
- viscosity (319.15 K): 0.375 ± 0.003 mPa·s
- mass density (319.15 K): 788.54 ± 0.12 kg/m3
- surface tension liquid-gas (321.15 K): 22.9 ± 0.3 mN/m
- viscosity (321.15 K): 0.367 ± 0.003 mPa·s
- mass density (321.15 K): 786.55 ± 0.12 kg/m3
- surface tension liquid-gas (323.15 K): 22.7 ± 0.3 mN/m
- viscosity (323.15 K): 0.359 ± 0.003 mPa·s
- mass density (323.15 K): 784.57 ± 0.12 kg/m3
- surface tension liquid-gas (325.15 K): 22.5 ± 0.3 mN/m
- viscosity (325.15 K): 0.351 ± 0.003 mPa·s
- mass density (325.15 K): 782.59 ± 0.12 kg/m3
- surface tension liquid-gas (327.15 K): 22.3 ± 0.3 mN/m
- viscosity (327.15 K): 0.343 ± 0.003 mPa·s
- mass density (327.15 K): 780.6 ± 0.12 kg/m3
- surface tension liquid-gas (329.15 K): 22.1 ± 0.3 mN/m
- viscosity (329.15 K): 0.336 ± 0.003 mPa·s
- mass density (329.15 K): 778.62 ± 0.12 kg/m3
